pEC50: −log10 of the molar value.
Columns and labels:
[1] = test system: HepG2 cells; assay: In vitro De Novo Lipogenesis (DNL) assay, 13C-acetate incorporation into palmitic acid; type: cell-based; conditions: Homo sapiens, 1 hour preincubation, 24 hours with 10 mM 13C-labeled acetate
Summary of the method: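 HepG2 cells were preincubated with compound for 1 h, then given 10 mM 13C-acetate for 24 h at 37 °C. Lipids were saponified with KOH/ethanol at 70 °C, and palmitate carrying 3–7 13C was quantified by RapidFire-QTOF MS. This signal was normalized to oleate and plotted against compound concentration.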

[2] = test system: monkey hepatocytes; assay: In vitro hepatic uptake in monkey hepatocytes; type: in vitro ADME; conditions: data not shown
Experimental: To further investigate the liver partitioning properties of the compound of Example 1, the compound was co-administered with rifampicin (RIF, pan-OATP inhibitor) in cynomolgus monkeys in vivo and hepatic uptake experiments were performed in monkey hepatocytes in vitro. […] Therefore the coadministration experiments as described below in more detail were conducted to administer Example 1 compound orally (5 mg/kg) in the absence and presence of IV administration of RIF (30 mg/kg).

pEC50 [1]: 9.00
hepatic uptake [2]: strong hepatic uptake
Structure (SMILES): COc1ccccc1[C@H](Cn1c(=O)n(C(C)(C)C(=O)NS(=O)(=O)C2(C)CC2)c(=O)c2c(C)c(-c3ncco3)sc21)O[C@@H]1C[C@H]2CC[C@@H](C1)O2 [Example 1, 2-(1-((R)-2-(((1R,3s,5S)-8-oxabicyclo[3.2.1]octan-3-yl)oxy)-2-(2-methoxyphenyl)ethyl)-5-methyl-6-(oxazol-2-yl)-2,4-dioxo-1,4-dihydrothieno[2,3-d]pyrimidin-3(2H)-yl)-2-methyl-N-((1-methylcyclopropyl)sulfonyl)propanamide]

— patent US11352371B2, “Thienopyrimidine derivatives as ACC inhibitors and uses thereof” (Gilead Sciences, Inc., priority 2019, dated 2022)
